Test results as given in doi:10.1101/2022.06.06.494947v1 (biorxiv, 2022).

Target: His-mASPDH (mouse ASPDH) (Mus musculus, UniProt Q9DCQ2)
Test: ITC, one-site model
Type: binding

His-mASPDH (mouse ASPDH), sequence (Q9DCQ2 whole entry): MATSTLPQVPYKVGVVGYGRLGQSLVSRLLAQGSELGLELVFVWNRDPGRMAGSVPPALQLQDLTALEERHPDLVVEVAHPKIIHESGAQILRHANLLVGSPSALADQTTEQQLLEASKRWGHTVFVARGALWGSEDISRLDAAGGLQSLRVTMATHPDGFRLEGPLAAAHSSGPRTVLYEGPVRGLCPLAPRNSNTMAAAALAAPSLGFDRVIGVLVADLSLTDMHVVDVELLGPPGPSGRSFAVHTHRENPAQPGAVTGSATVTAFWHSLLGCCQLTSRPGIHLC

| SMILES | Kd [nM] |
| --- | --- |
| Nc1ncnc2c1ncn2[C@@H]1O[C@H](COP(=O)(O)OP(=O)(O)OC[C@H]2O[C@@H]([n+]3cccc(C(=O)O)c3)[C@H](O)[C@@H]2O)[C@@H](O)[C@H]1OP(=O)(O)O [NAADP] | 455 ± 231 |
| NC(=O)c1ccc[n+]([C@@H]2O[C@H](COP(=O)(O)OP(=O)(O)OC[C@H]3O[C@@H](n4cnc5c(N)ncnc54)[C@H](OP(=O)(O)O)[C@@H]3O)[C@@H](O)[C@H]2O)c1 [NADP] | 958 ± 203 |
